The values that follow are results of earlier work, collected in US11866789B2, “Targeted therapies for cancer” (THE TRANSLATIONAL GENOMICS RESEARCH INSTITUTE, priority 2015, dated 2024).

SMILES strings stand for the structures.

In data set [1] the test system is advanced biliary tract cancer or hepatobiliary cancer. The following applies: 17 patients evaluated.
The subject of data set [2] is Cell line models expressing NRG1 fusions. The following applies: See Reference 29.

As for `CS(=O)(=O)CCNCc1ccc(-c2ccc3ncnc(Nc4ccc(OCc5cccc(F)c5)c(Cl)c4)c3c2)o1` [Lapatinib], the objective response result in data set [1] is “no objective response”. In addition, the “sensitivity of NRG1 fusion cell line models” value in data set [2] is listed as “increased sensitivity”.
